Laboratory results published in the supplement of paper PMC10307832.

Tests used:
Experiment in all cases: relative viability (nuclei count vs DMSO), 5 days (fraction); higher = more cells survive
[1] = compound: C1=CC=C(C(=C1)C2=CC=C(C=C2)C3=CSC4=C3C(=C(C(=O)N4)C#N)O)O + CC(=O)Nc1cccc(-n2c(=O)n(C3CC3)c(=O)c3c(Nc4ccc(I)cc4F)n(C)c(=O)c(C)c32)c1 [Trametinib] (partner 0.02 µM)
In short: (§1)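 Relative viability was taken as the ratio of nuclei in treated wells to nuclei in vehicle wells. Lung cancer cell lines in 1536-well plates received compounds by pin tool one day after seeding, either one drug alone or a fixed anchor-drug dose plus five library-drug doses (not always all listed) in √10 steps. Nuclei were counted on 4× images after 5 days of treatment, and values are medians of duplicate plates.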

[2] = compound: C1=CC=C(C(=C1)C2=CC=C(C=C2)C3=CSC4=C3C(=C(C(=O)N4)C#N)O)O + Nc1nc2[nH]cc(CCc3ccc(C(=O)N[C@@H](CCC(=O)O)C(=O)O)cc3)c2c(=O)[nH]1 [Pemetrexed] (partner 0.2 µM)
In short: as §1

[3] = compound: O=C(CCCCCCNC(=O)c1cnc(N(c2ccccc2)c2ccccc2)nc1)NO [Ricolinostat] + Nc1ncn([C@H]2C[C@H](O)[C@@H](CO)O2)c(=O)n1 [Decitabine] (partner 2 µM)
In short: as §1

[4] = compound: O=C(CCCCCCNC(=O)c1cnc(N(c2ccccc2)c2ccccc2)nc1)NO [Ricolinostat] + Cc1nc(NC(=O)N2CCC[C@H]2C(N)=O)sc1-c1ccnc(C(C)(C)C(F)(F)F)c1 [Alpelisib] (partner 2 µM)
In short: as §1

Cell Line | relative viability ([1]; first compound 0.08 µM) | relative viability ([1]; first compound 0.253 µM) | relative viability ([1]; first compound 0.8 µM) | relative viability ([1]; first compound 2.53 µM) | relative viability ([1]; first compound 8 µM) | relative viability ([2]; first compound 0.08 µM) | relative viability ([2]; first compound 0.253 µM) | relative viability ([2]; first compound 0.8 µM) | relative viability ([2]; first compound 2.53 µM) | relative viability ([2]; first compound 8 µM) | relative viability ([3]; first compound 0.08 µM) | relative viability ([3]; first compound 0.253 µM) | relative viability ([3]; first compound 0.8 µM) | relative viability ([3]; first compound 2.53 µM) | relative viability ([4]; first compound 0.08 µM) | relative viability ([4]; first compound 0.253 µM) | relative viability ([4]; first compound 0.8 µM) | relative viability ([4]; first compound 2.53 µM)
NCI-H1915 | 0.304 | 0.303 | 0.505 | 0.314 | 0.316 | 0.437 | 0.443 | 0.486 | 0.481 | 0.506 | 0.276 | 0.264 | 0.245 | 0.238 | 1.01 | 1.06 | 1.01 | 0.962
RERF-LC-KJ | 0.988 | 0.908 | 0.917 | 0.878 | 0.834 | 0.468 | 0.521 | 0.485 | 0.441 | 0.552 | 0.77 | 0.609 | 0.672 | 0.618 | 0.668 | 0.972 | 0.754 | 0.766
NCI-H520 | 0.5 | 0.733 | 0.779 | 0.613 | 0.443 | 0.484 | 0.676 | 0.804 | 0.705 | 0.608 |  | 0.521 | 0.513 | 0.426 |  | 0.765 | 0.954 | 0.852
NCI-H2085 | 0.55 | 0.772 | 0.615 | 0.484 | 0.598 | 0.838 | 1.01 | 0.801 | 0.886 | 0.818 |  | 0.51 | 0.557 | 0.512 |  | 1.04 | 0.861 | 0.915
LCLC-103H | 0.729 | 0.618 | 0.682 | 0.632 | 0.62 | 0.51 | 0.453 | 0.431 | 0.456 | 0.519 | 0.726 | 0.745 | 0.76 | 0.739 | 0.814 | 0.971 | 0.883 | 0.959
PC-14 | 0.758 | 0.925 | 0.912 | 0.792 | 0.623 | 0.151 | 0.156 | 0.153 | 0.125 | 0.146 | 0.22 | 0.19 | 0.193 | 0.22 | 0.821 | 0.903 | 0.917 | 0.66
HCC-366 |  | 0.385 | 0.363 | 0.439 | 0.314 |  | 0.172 | 0.168 | 0.176 | 0.165 | 0.332 | 0.344 | 0.342 | 0.329 | 0.223 | 0.407 | 0.398 | 0.433
NCI-H2126 | 0.611 | 0.51 | 0.571 | 0.54 | 0.476 | 0.837 | 0.823 | 0.694 | 0.664 | 0.513 | 0.563 | 0.555 | 0.561 | 0.481 | 0.578 | 0.707 | 0.716 | 0.628
NCI-H2023 | 0.364 | 0.584 | 0.708 | 0.535 | 0.466 | 0.188 | 0.296 | 0.368 | 0.208 | 0.323 | 0.234 | 0.233 | 0.227 | 0.204 | 0.503 | 0.581 | 0.614 | 0.499
SK-LU-1 | 0.412 | 0.408 | 0.505 | 0.476 | 0.426 | 0.933 | 0.943 | 0.918 | 1.03 | 0.806 | 0.607 | 0.604 | 0.638 | 0.524 | 0.947 | 0.914 | 0.84 | 0.708
NCI-H2347 | 0.287 | 0.304 | 0.243 | 0.255 | 0.286 | 0.367 | 0.429 | 0.403 | 0.444 | 0.406 | 0.626 | 0.664 | 0.585 | 0.61 | 0.889 | 1.01 | 0.987 | 0.963
HCC-15 | 0.39 | 0.369 | 0.409 | 0.427 | 0.358 | 0.237 | 0.232 | 0.213 | 0.242 | 0.215 | 0.593 | 0.687 | 0.631 | 0.464 | 0.753 | 0.875 | 0.834 | 0.894
HCC-44 | 1.13 | 1.15 | 1.13 | 0.937 | 0.927 | 0.702 | 0.61 | 0.649 | 0.613 | 0.57 | 1 | 0.948 | 0.926 | 0.951 | 0.694 | 0.743 | 0.725 | 0.612
NCI-H1355 | 0.484 | 0.495 | 0.416 | 0.432 | 0.454 | 1.01 | 1.12 | 1.13 | 1.04 | 1.11 | 0.332 | 0.331 | 0.36 | 0.328 |  | 0.847 | 0.795 | 0.715
NCI-H2405 | 0.55 |  | 0.639 | 0.601 | 0.574 | 1.01 |  | 1.07 | 0.975 | 0.948 | 0.671 | 0.749 | 0.804 | 0.797 | 0.524 | 0.805 | 0.889 | 1.08
EKVX | 0.358 | 0.436 | 0.462 | 0.378 | 0.318 | 0.425 | 0.497 | 0.399 | 0.465 | 0.336 | 0.31 | 0.322 | 0.299 | 0.346 |  | 0.883 | 0.882 | 0.942
NCI-H1993 | 0.479 | 0.502 | 0.495 | 0.565 | 0.542 | 0.585 | 0.939 | 0.551 | 0.54 | 0.497 | 0.571 | 0.588 | 0.599 | 0.709 | 0.619 | 0.76 | 0.711 | 0.73
